According to patent US10179138B2, “Pharmaceutical composition comprising 7β-hydroxycholesterol intravenous administration” (Immunopharm AG, priority 2016, dated 2019):
Read-outs that look alike come from different tables or passages of the source.

What was measured:
[1] = assay type: physicochemical
Description: However, if you want to dilute the solution of 7β-hydroxycholesterol/solvent in an aqueous liquid, e.g. for the provision of an infusion solution, the substance flocculates. Thus, the inventors use a solubilizing agent in order to maintain 7β-hydroxycholesterol in the later infusion solution in solution.

[2] = cited from earlier work
[3] = assay type: physicochemical; settings: for decomposition of 7β-hydroxycholesterol after sterilization: sterilization at 120° C.
Experimental: The solution has been stored in glass vials.
A readily prepared infusion solution (on the basis of physiological saline solution) has been stored at room temperature (<25° C.) for 3 months.

[4] = cited from earlier work; for behaviour in aqueous solution over time: after several hours
[5] = system: human cell lines of colon carcinoma; settings: cited from earlier work
[6] = readily prepared infusion solution (physiological saline), room temperature (<25° C.), 3 months

Molecule | behaviour on dilution of solvent solution in aqueous liquid [1] | solubility in water soluble organic solvent [1] | stability of solution in water soluble organic solvent [1] | solubility in water [2] | decomposition of 7β-hydroxycholesterol on storage ([3]; concentrate stored at 40° C. for 3 months in glass vials) | decomposition of 7β-hydroxycholesterol after sterilization ([3]; concentrate) | decomposition of 7β-hydroxycholesterol after sterilization ([3]; readily prepared infusion solution (physiological saline solution)) | appearance / flocculation of solution on storage [3, 6] | decrease of content of 7β-hydroxycholesterol by HPLC after storage [3, 6] | behaviour in aqueous solution over time [4] | stability in aqueous solution [4] | water solubility [4] | induction of apoptosis [5]
CC(C)CCC[C@@H](C)[C@H]1CC[C@H]2[C@@H]3[C@@H](O)C=C4C[C@@H](O)CC[C@]4(C)[C@H]3CC[C@]12C [7β-hydroxycholesterol] | flocculates | excellent solubility | remain stable for years | insoluble in water | did not show a decomposition | remained stable | remained stable | remained clear, there was no flocculation | could not be determined | – | – | – | –
CC(C)CCC[C@@H](C)[C@H]1CC[C@H]2[C@@H]3[C@@H](OC(=O)CCC(=O)[O-])C=C4C[C@@H](OC(=O)CCC(=O)[O-])CC[C@]4(C)[C@H]3CC[C@]12C.[Na+].[Na+] [7β-hydroxycholesteryl-bishemisuccinate-disodium] | – | – | – | – | – | – | – | – | – | starts to decompose and to flocculate | instable | water soluble | induction of apoptosis
hydroxycholesteryl-bishemisuccinate-diethanolamine | – | – | – | – | – | – | – | – | – | starts to decompose and to flocculate | instable | – | induction of apoptosis
